{"source": "paper PMC5218480", "about": "(PLoS ONE, 2017)", "test_system": "MV-4-11 cells", "assay": "Gene expression microarray analysis (Affymetrix PrimeView) and GSEA", "format": "cell-based, human", "design": "RFU PODN (11730768_x_at) / Fold change /veh PODN (11730768_x_at) / RFU LINC00158 (11744669_a_at) / Fold change /veh LINC00158 (11744669_a_at) / RFU DUSP10 (11751237_a_at) / Fold change /veh DUSP10 (11751237_a_at) / RFU ID3 (11757404_x_at) / Fold change /veh ID3 (11757404_x_at) / RFU PLEKHG5 (11737974_s_at) / Fold change /veh PLEKHG5 (11737974_s_at) / RFU LRRC4B (11730491_at) / Fold change /veh LRRC4B (11730491_at) / RFU GIMAP4 (11747438_a_at) / Fold change /veh GIMAP4 (11747438_a_at) / RFU KRT8 (11758183_x_at) / Fold change /veh KRT8 (11758183_x_at) / RFU CNN1 (11734310_a_at) / Fold change /veh CNN1 (11734310_a_at) / RFU VPS37D (11726825_at) / Fold change /veh VPS37D (11726825_at) / RFU C10orf10 (11716522_x_at) / Fold change /veh C10orf10 (11716522_x_at) / RFU KIR2DL2 /// KIR2DL4 /// KIR2DL5A /// KIR2DL5B /// KIR2DS1 /// KIR2DS2 /// KIR2DS3 /// KIR2DS4 /// KIR3DL3 /// KIR3DL3 /// KIR3DS1 (11738374_at) / Fold change /veh KIR2DL2 /// KIR2DL4 /// KIR2DL5A /// KIR2DL5B /// KIR2DS1 /// KIR2DS2 /// KIR2DS3 /// KIR2DS4 /// KIR3DL3 /// KIR3DL3 /// KIR3DS1 (11738374_at) / RFU C1QL1 (11718748_at) / Fold change /veh C1QL1 (11718748_at) / RFU TMPRSS4 (11747572_a_at) / Fold change /veh TMPRSS4 (11747572_a_at) / RFU HAMP (11756126_x_at) / Fold change /veh HAMP (11756126_x_at) / RFU RNFT2 (11725882_a_at) / Fold change /veh RNFT2 (11725882_a_at) / RFU NR4A2 (11747474_a_at) / Fold change /veh NR4A2 (11747474_a_at) / RFU ABCC12 (11746883_a_at) / Fold change /veh ABCC12 (11746883_a_at) / RFU TMEM136 (11760407_x_at) / Fold change /veh TMEM136 (11760407_x_at) / RFU CLDN22 /// WWC2 (11732394_at) / Fold change /veh CLDN22 /// WWC2 (11732394_at) / RFU HLA-DPB1 (11760878_x_at) / Fold change /veh HLA-DPB1 (11760878_x_at) / RFU SPINT1 (11716480_a_at) / Fold change /veh SPINT1 (11716480_a_at) / RFU GAP43 (11754022_s_at) / Fold change /veh GAP43 (11754022_s_at) / RFU A4GNT (11735810_at) / Fold change /veh A4GNT (11735810_at) / RFU PRB3 (11715151_x_at) / Fold change /veh PRB3 (11715151_x_at) / RFU TUBB4B (11761932_at) / Fold change /veh TUBB4B (11761932_at) / RFU CAPN14 (11732068_a_at) / Fold change /veh CAPN14 (11732068_a_at) / RFU TMCC2 (11721928_a_at) / Fold change /veh TMCC2 (11721928_a_at) / RFU IRGQ (11745062_a_at) / Fold change /veh IRGQ (11745062_a_at) / RFU FAM174B (11720279_a_at) / Fold change /veh FAM174B (11720279_a_at) / RFU TMPRSS4 (11748680_a_at) / Fold change /veh TMPRSS4 (11748680_a_at) / RFU FAM212B (11763350_a_at) / Fold change /veh FAM212B (11763350_a_at) / RFU PLEKHG5 (11743358_a_at) / Fold change /veh PLEKHG5 (11743358_a_at) / RFU ZSCAN30 (11745921_a_at) / Fold change /veh ZSCAN30 (11745921_a_at) / RFU CMKLR1 (11741424_a_at) / Fold change /veh CMKLR1 (11741424_a_at) / RFU LOC101060620 /// MAPK8IP1 (11723275_at) / Fold change /veh LOC101060620 /// MAPK8IP1 (11723275_at) / RFU SPTSSB (11747773_x_at) / Fold change /veh SPTSSB (11747773_x_at) / RFU PRSS12 (11739890_at) / Fold change /veh PRSS12 (11739890_at) / RFU BIN1 (11741810_x_at) / Fold change /veh BIN1 (11741810_x_at) / RFU WNT11 (11732464_a_at) / Fold change /veh WNT11 (11732464_a_at) / RFU C10orf10 (11716521_a_at) / Fold change /veh C10orf10 (11716521_a_at) / RFU C5orf56 (11738089_at) / Fold change /veh C5orf56 (11738089_at) / RFU CYB561 (11721691_x_at) / Fold change /veh CYB561 (11721691_x_at) / RFU ANKRD19P (11752326_a_at) / Fold change /veh ANKRD19P (11752326_a_at) / RFU OR2T12 /// OR2T33 /// OR2T8 (11738714_s_at) / Fold change /veh OR2T12 /// OR2T33 /// OR2T8 (11738714_s_at) / RFU VCAN (11748164_a_at) / Fold change /veh VCAN (11748164_a_at) / RFU JSRP1 (11732532_at) / Fold change /veh JSRP1 (11732532_at) / RFU KRTAP10-11 (11738290_x_at) / Fold change /veh KRTAP10-11 (11738290_x_at) / RFU MYO3A (11730013_a_at) / Fold change /veh MYO3A (11730013_a_at) / RFU EBF3 (11725865_a_at) / Fold change /veh EBF3 (11725865_a_at) / RFU CAMK2N1 (11719241_x_at) / Fold change /veh CAMK2N1 (11719241_x_at) / RFU C5orf56 (11738088_a_at) / Fold change /veh C5orf56 (11738088_a_at) / RFU OLFML3 (11715873_a_at) / Fold change /veh OLFML3 (11715873_a_at) / RFU LOC100653217 /// NTM (11731650_a_at) / Fold change /veh LOC100653217 /// NTM (11731650_a_at) / RFU MAPK11 (11762145_a_at) / Fold change /veh MAPK11 (11762145_a_at) / RFU FIZ1 (11724087_x_at) / Fold change /veh FIZ1 (11724087_x_at) / RFU OASL (11726364_x_at) / Fold change /veh OASL (11726364_x_at) / RFU SOX15 (11748057_x_at) / Fold change /veh SOX15 (11748057_x_at) / RFU CD79A (11719716_a_at) / Fold change /veh CD79A (11719716_a_at) / RFU HIST1H1D (11736915_at) / Fold change /veh HIST1H1D (11736915_at) / RFU CASKIN2 (11723855_a_at) / Fold change /veh CASKIN2 (11723855_a_at) / RFU LOC730098 (11760151_x_at) / Fold change /veh LOC730098 (11760151_x_at) / RFU OR4N2 (11742367_at) / Fold change /veh OR4N2 (11742367_at) / RFU PRRT2 (11749266_a_at) / Fold change /veh PRRT2 (11749266_a_at) / RFU SNX32 (11753110_a_at) / Fold change /veh SNX32 (11753110_a_at) / RFU CDHR5 (11726645_a_at) / Fold change /veh CDHR5 (11726645_a_at) / RFU RCAN1 (11760418_a_at) / Fold change /veh RCAN1 (11760418_a_at) / RFU FAM167A (11723789_a_at) / Fold change /veh FAM167A (11723789_a_at) / RFU FAM26E (11764081_at) / Fold change /veh FAM26E (11764081_at) / RFU ISYNA1 (11749810_s_at) / Fold change /veh ISYNA1 (11749810_s_at) / RFU ACY1 (11761880_at) / Fold change /veh ACY1 (11761880_at) / RFU 11764098_at / Fold change /veh 11764098_at / RFU SAMD14 (11745864_x_at) / Fold change /veh SAMD14 (11745864_x_at) / RFU NPB (11741838_a_at) / Fold change /veh NPB (11741838_a_at) / RFU TMPRSS6 (11731388_a_at) / Fold change /veh TMPRSS6 (11731388_a_at) / RFU KRTAP10-2 (11738614_at) / Fold change /veh KRTAP10-2 (11738614_at) / RFU ARHGAP8 /// PRR5-ARHGAP8 (11727945_x_at) / Fold change /veh ARHGAP8 /// PRR5-ARHGAP8 (11727945_x_at) / RFU KRTAP5-7 /// NADSYN1 (11734609_at) / Fold change /veh KRTAP5-7 /// NADSYN1 (11734609_at) / RFU RASL12 (11751679_a_at) / Fold change /veh RASL12 (11751679_a_at) / RFU CDKN2B (11736163_a_at) / Fold change /veh CDKN2B (11736163_a_at) / RFU PRF1 (11729649_at) / Fold change /veh PRF1 (11729649_at) / RFU, ZNF638 /// ZNF638-IT1 / Fold change vs veh, ZNF638 /// ZNF638-IT1 / RFU, PANK3 / Fold change vs veh, PANK3 / RFU, SH3YL1 / Fold change vs veh, SH3YL1 / RFU, ZEB2 / Fold change vs veh, ZEB2 / RFU, NRIP1 / Fold change vs veh, NRIP1 / RFU, PTTG1IP / Fold change vs veh, PTTG1IP / RFU, CAPN2 / Fold change vs veh, CAPN2 / RFU, MED14 / Fold change vs veh, MED14 / RFU, SNORA58 / Fold change vs veh, SNORA58 / RFU, C1orf63 / Fold change vs veh, C1orf63 / RFU, LRRFIP1 / Fold change vs veh, LRRFIP1 / RFU, NDUFAF7 / Fold change vs veh, NDUFAF7 / RFU, SLC12A2 / Fold change vs veh, SLC12A2 / RFU, IBTK / Fold change vs veh, IBTK / RFU, ESF1 / Fold change vs veh, ESF1 / Fold change vs veh, TMEM50B / RFU, TAOK1 / Fold change vs veh, TAOK1 / RFU, ACBD3 / Fold change vs veh, ACBD3 / RFU, TMA16 / Fold change vs veh, TMA16 / RFU, RWDD3 / Fold change vs veh, RWDD3 / RFU, BCAT1 / Fold change vs veh, BCAT1 / RFU, EDEM3 / Fold change vs veh, EDEM3 / RFU, TMEM33 / Fold change vs veh, TMEM33 / RFU, WDR75 / Fold change vs veh, WDR75 / RFU, AHCTF1 / Fold change vs veh, AHCTF1 / RFU, TFRC / Fold change vs veh, TFRC / RFU, ZDHHC17 / Fold change vs veh, ZDHHC17 / RFU, NOM1 / Fold change vs veh, NOM1 / RFU, ARL8B / Fold change vs veh, ARL8B / RFU, ZBTB11 / Fold change vs veh, ZBTB11 / RFU, TAMM41 / Fold change vs veh, TAMM41 / RFU, KIAA1704 /// LOC100996395 / Fold change vs veh, KIAA1704 /// LOC100996395 / RFU, ING1 / Fold change vs veh, ING1 / RFU, TRMT61B / Fold change vs veh, TRMT61B / RFU, FUBP3 / Fold change vs veh, FUBP3 / RFU, TP53 / Fold change vs veh, TP53 / RFU, TNKS2 / Fold change vs veh, TNKS2 / RFU, ZFP14 / Fold change vs veh, ZFP14 / RFU, ACTR2 / Fold change vs veh, ACTR2 / RFU, PPP3R1 / Fold change vs veh, PPP3R1 / RFU, PIK3R1 / Fold change vs veh, PIK3R1 / RFU, HNRNPA1 / Fold change vs veh, HNRNPA1 / RFU, RNF170 / Fold change vs veh, RNF170 / RFU, ZNF28 / Fold change vs veh, ZNF28 / RFU, RNGTT / Fold change vs veh, RNGTT / RFU, OGT / Fold change vs veh, OGT / RFU, BRD1 / Fold change vs veh, BRD1 / RFU, MARS / Fold change vs veh, MARS / RFU, ZNF655 / Fold change vs veh, ZNF655 / RFU, FAHD1 / Fold change vs veh, FAHD1 / RFU, BDP1 / Fold change vs veh, BDP1 / RFU, LRRCC1 / Fold change vs veh, LRRCC1 / RFU, ARID1A / Fold change vs veh, ARID1A / RFU, ZNF146 / Fold change vs veh, ZNF146 / RFU, ZNF330 / Fold change vs veh, ZNF330 / RFU, GPN3 / Fold change vs veh, GPN3 / RFU, C9orf123 / Fold change vs veh, C9orf123 / RFU, N4BP2L2 / Fold change vs veh, N4BP2L2 / RFU, ARFIP1 / Fold change vs veh, ARFIP1 / RFU, FAM179B / Fold change vs veh, FAM179B / RFU, BCL10 / Fold change vs veh, BCL10 / RFU, UHRF1BP1L / Fold change vs veh, UHRF1BP1L / RFU, BET1 / Fold change vs veh, BET1 / RFU, CNOT2 / Fold change vs veh, CNOT2 / RFU, ZNF268 / Fold change vs veh, ZNF268 / Fold change vs veh, ZNF507 / RFU, DGCR2 / Fold change vs veh, DGCR2 / RFU, WDSUB1 / Fold change vs veh, WDSUB1 / Fold change vs veh, HSP90B1 /// MIR3652 / RFU, ADSS / Fold change vs veh, ADSS / RFU, GK / Fold change vs veh, GK / RFU, ZNF148 / Fold change vs veh, ZNF148 / RFU, TAF9 / Fold change vs veh, TAF9 / RFU, SLC1A5 / Fold change vs veh, SLC1A5 / RFU, SLMO2 / Fold change vs veh, SLMO2 / RFU, ABCC4 / Fold change vs veh, ABCC4 / RFU, LOC101060439 /// RAP1B / Fold change vs veh, LOC101060439 /// RAP1B / RFU, RFX7 / Fold change vs veh, RFX7 / RFU, GTPBP10 / Fold change vs veh, GTPBP10 / RFU, CNEP1R1 / Fold change vs veh, CNEP1R1 / RFU, BIVM-ERCC5 /// ERCC5 / Fold change vs veh, BIVM-ERCC5 /// ERCC5 / RFU, ILF3 / Fold change vs veh, ILF3 / RFU 11762660_at / Fold change /veh 11762660_at / RFU VCAN (11757783_s_at) / Fold change /veh VCAN (11757783_s_at) / RFU DDX43 (11728927_at) / Fold change /veh DDX43 (11728927_at) / RFU KRT8 (11758188_x_at) / Fold change /veh KRT8 (11758188_x_at) / RFU NKD1 (11759106_at) / Fold change /veh NKD1 (11759106_at) / RFU SRD5A1 (11742802_a_at) / Fold change /veh SRD5A1 (11742802_a_at) / RFU TPSAB1 /// TPSB2 (11721975_s_at) / Fold change /veh TPSAB1 /// TPSB2 (11721975_s_at) / RFU GSTM3 (11746129_a_at) / Fold change /veh GSTM3 (11746129_a_at) / RFU IL23R (11737362_x_at) / Fold change /veh IL23R (11737362_x_at) / RFU TMEM51 (11727254_a_at) / Fold change /veh TMEM51 (11727254_a_at) / RFU PIWIL2 (11732686_x_at) / Fold change /veh PIWIL2 (11732686_x_at) / RFU ORM1 (11744905_x_at) / Fold change /veh ORM1 (11744905_x_at) / RFU CCDC152 (11743942_at) / Fold change /veh CCDC152 (11743942_at) / RFU ECM1 (11717891_a_at) / Fold change /veh ECM1 (11717891_a_at) / RFU IL23R (11748794_a_at) / Fold change /veh IL23R (11748794_a_at) / RFU TNFAIP8L3 (11732012_x_at) / Fold change /veh TNFAIP8L3 (11732012_x_at) / RFU MBOAT4 (11741988_at) / Fold change /veh MBOAT4 (11741988_at) / RFU 11764193_at / Fold change /veh 11764193_at / RFU TMEM53 (11763286_at) / Fold change /veh TMEM53 (11763286_at) / RFU MAGEB2 (11727129_at) / Fold change /veh MAGEB2 (11727129_at) / RFU TMEM200A (11744735_a_at) / Fold change /veh TMEM200A (11744735_a_at) / RFU CCDC152 (11751479_a_at) / Fold change /veh CCDC152 (11751479_a_at) / RFU FAM211A (11726209_a_at) / Fold change /veh FAM211A (11726209_a_at) / RFU RGS16 (11746705_a_at) / Fold change /veh RGS16 (11746705_a_at) / RFU VCAN (11755009_s_at) / Fold change /veh VCAN (11755009_s_at) / RFU RHOB (11743442_s_at) / Fold change /veh RHOB (11743442_s_at) / RFU RGS16 (11720943_a_at) / Fold change /veh RGS16 (11720943_a_at) / RFU RGS16 (11720944_at) / Fold change /veh RGS16 (11720944_at) / RFU, VPS4B / Fold change vs veh, VPS4B / RFU, CREB1 / Fold change vs veh, CREB1 / RFU, DNAJC13 / Fold change vs veh, DNAJC13 / RFU, GNAQ / Fold change vs veh, GNAQ / RFU, CDK5R1 / Fold change vs veh, CDK5R1 / RFU, ZRANB3 / Fold change vs veh, ZRANB3 / RFU, CUL4A / Fold change vs veh, CUL4A / RFU, CCNY / Fold change vs veh, CCNY / RFU, UFL1 / Fold change vs veh, UFL1 / RFU, COG3 / Fold change vs veh, COG3 / RFU, DIAPH2 / Fold change vs veh, DIAPH2 / RFU, SKA2 / Fold change vs veh, SKA2 / RFU, AFF3 / Fold change vs veh, AFF3 / RFU, LMF1 / Fold change vs veh, LMF1 / RFU, IPO11 / Fold change vs veh, IPO11 / RFU, DFFB / Fold change vs veh, DFFB / RFU, FOXP1 / Fold change vs veh, FOXP1 / RFU, CARD8 / Fold change vs veh, CARD8 / RFU, STRN3 / Fold change vs veh, STRN3 / RFU, ADK / Fold change vs veh, ADK / RFU, RASSF2 / Fold change vs veh, RASSF2 / RFU, WIPF1 / Fold change vs veh, WIPF1 / RFU, LARP1B / Fold change vs veh, LARP1B / RFU, RASA1 / Fold change vs veh, RASA1 / RFU, RB1 / Fold change vs veh, RB1 / RFU, PPFIA1 / Fold change vs veh, PPFIA1 / RFU, MAT2A / Fold change vs veh, MAT2A / RFU, CCT5 / Fold change vs veh, CCT5 / RFU, WDR92 / Fold change vs veh, WDR92 / RFU, CUX1 / Fold change vs veh, CUX1 / RFU, TTC7A / Fold change vs veh, TTC7A / RFU, TMEM135 / Fold change vs veh, TMEM135 / RFU, DEPTOR / Fold change vs veh, DEPTOR / RFU, CPM / Fold change vs veh, CPM / RFU, DNAJB6 / Fold change vs veh, DNAJB6 / RFU, CACNA2D3 / Fold change vs veh, CACNA2D3 / RFU, DTX4 / Fold change vs veh, DTX4 / RFU, TFCP2 / Fold change vs veh, TFCP2 / RFU, GMCL1 /// GMCL1P1 / Fold change vs veh, GMCL1 /// GMCL1P1 / RFU, AEBP2 / Fold change vs veh, AEBP2 / RFU, SNHG1 /// SNORD22 /// SNORD25 /// SNORD26 /// SNORD27 /// SNORD28 /// SNORD29 /// SNORD31 / Fold change vs veh, SNHG1 /// SNORD22 /// SNORD25 /// SNORD26 /// SNORD27 /// SNORD28 /// SNORD29 /// SNORD31 / Fold change (Aza/veh), C12orf56 (ProbeSet 11735607_a_at) / Fold change (ACY-1035/veh), C12orf56 (ProbeSet 11735607_a_at) / Fold change (Aza/veh), FGFR1OP (ProbeSet 11751329_s_at) / Fold change (ACY-1035/veh), FGFR1OP (ProbeSet 11751329_s_at) / Fold change (Aza/veh), VPS36 (ProbeSet 11739960_a_at) / Fold change (ACY-1035/veh), VPS36 (ProbeSet 11739960_a_at) / RFU SYPL1 (11715823_x_at) / Fold change /veh SYPL1 (11715823_x_at) / RFU IGFBP7 (11715501_s_at) / Fold change /veh IGFBP7 (11715501_s_at) / RFU REEP3 (11722064_at) / Fold change /veh REEP3 (11722064_at) / RFU IGLL1 (11728026_x_at) / Fold change /veh IGLL1 (11728026_x_at): dose or concentration left out as unconfirmed", "conditions": "MV-4-11 cells, 48 hours", "data": [{"smiles": "Nc1ncn([C@@H]2O[C@H](CO)[C@@H](O)[C@H]2O)c(=O)n1", "note": "[azacitidine]", "values": [{"measurement": "Fold change /veh KRT8 (11758188_x_at)", "result": 1.26}]}]}
